According to patent publication US20200338028A1, “BENZENESULFONAMIDE DERIVATIVES AND METHOD FOR MODULATING LIPID RAFT” (Gongwin Biopharm Co., Ltd., priority 2017, published 2020):
Like-named read-outs stand apart in the source and are kept apart here.

How the values were obtained:
[1] = test system: PC-3 cells; assay: SRB assay, anti-proliferative effect; format: cell-based; conditions: Homo sapiens
Procedure: Two castration-resistant prostate cancer (CRPC) cell lines of PC-3 and DU-145 were cultured in RPMI 1640 medium with 5% FBS (v/v), penicillin (100 units/ml) and streptomycin (100 μg/ml). Cultures were maintained in a 37° C. incubator with 5% CO2, and adherent cultures were passaged using 0.05% trypsin-EDTA when they reached about 80% confluence. Prostate cells were from human tissue samples which were obtained following informed consent of the donors and after full review by the Ethics Review Committee at National Taiwan University Hospital. The prostate specimens were from males by transurethral resection of the prostate. All patients with prostatism histories were diagnosed to have benign prostate hyperplasia by rectal digital examination, transrectal sonography of prostate and urodynamic studies. Isolation of human prostatic cells from prostatic tissue explants was described in the previous study. The prostate cells were with less amount lipid rafts compared to prostate cancer cells.
SRB assay, colonogenic assay, and carboxyfluorescein succinimidyl ester (CFSE) staining were used for anti-proliferative determination. SRB assay is an accurate and reproducible assay based upon quantitative SRB staining of cellular proteins, and the process for SRB assay was performed as follows. Each individual PC-3 and DU-145 cells were seeded in 96-well plates in medium with 10% FBS. After 24 h, PC-3 and DU-145 cells were fixed with 10% TCA to represent cell population at the time of p-TSA addition. […] The absorbance of SRB was measured at a wavelength of 515 nm at the time of p-TSA addition (hereinafter referred to as time zero, TZ), and after additional incubation of DMSO (hereinafter referred to as control growth, CTL) or p-TSA (hereinafter referred to as Tx). The percentage of cell growth inhibition was calculated by the formula of [1−(Tx−TZ)/(CTL−TZ)]×100%. […]
To further substantiate the role of Akt, the Myr-Akt overexpressed PC-3 cells were prepared with the method shown as follows. […] Furthermore, the functional rescue of Myr-Akt was determined. […]

[2] = test system: DU-145 cells; assay: colony formation (clonogenic) assay; format: cell-based, human; conditions: DU-145, 10 days, FIG. 1B
Procedure: To assay the anchorage-dependent clonogenic effect, each individual PC-3 and DU-145 cells (150 cells/well) were seeded in a 6-well plate. After a 10-day treatment with p-TSA, the cell colonies were rinsed with phosphate-buffered saline (PBS), stained with 0.4% (w/v) crystal violet dissolved in 20% methanol, and lysed by 50 mM sodium citrate dissolved in 50% ethanol. The absorbance was read at a wavelength of 595 nm.

[3] = test system: DU-145 cells; assay: Western blot of Bcl-2 family members, cell cycle regulators and Akt/mTOR/p70S6K pathway signals; format: cell-based, human
Procedure: (§1) In addition, protein expression assay of each Mcl-1, Bcl-2, Bid, PUMA and Bak was performed by western blotting with methods described as follows. After treatment of PC-3 and DU145 cells with p-TSA, the cells were harvested with trypsinization, centrifuged and lysed in 0.1 ml of lysis buffer containing 10 mM Tris-HCl (pH 7.4), 150 mM NaCl, 1 mM EGTA, 1% Triton X-100, 1 mM PMSF, 10 μg/ml leupeptin, 10 μg/ml aprotinin, 50 mM NaF and 100 μM sodium orthovanadate. Total protein was quantified, mixed with the sample buffer and boiled at 90° C. for 5 min. Equal amount of protein (30 μg) was separated by electrophoresis in 8% or 12% SDS-PAGE, transferred to PVDF membranes and detected with specific antibodies (1:1000 dilution) for each of Mcl-1, Bcl-2, Bid, PUMA and Bak proteins. The immunoreactive proteins after incubation with appropriately labeled secondary antibody (1:3000 dilution) were detected with an enhanced chemiluminescence detection kit (Amersham, Buckinghamshire, United Kingdom). […] These effects were correlated with the mitochondrial stress.
(§2) During G1 phase, cells grow in size and synthesize mRNA and proteins which are necessary to DNA synthesis. The serine/threonine kinases mTOR and p70S6K that regulate protein synthesis (mRNA translation) through affecting the phosphorylation or activities of several downstream translation factors are critical regulators in G1 phase. Protein expression assay of each Akt, mTOR 4E-BP1 and p70S6K was performed by Western blotting.

[4] = test system: PC-3 cells; assay: as above; format: cell-based, human
Procedure: as §1, §2

Cc1ccc(S(N)(=O)=O)cc1 [p-TSA, para-toluenesulfonamide]
IC50 ([1]; PC-3, 48 h, PC-3 overexpressing constitutively active Myr-Akt, 48 hours, FIG. 4E, read-out: IC50, growth inhibition, SRB assay): 2180 ± 100 µM | IC50 ([1]; PC-3, 48 h, PC-3 without Myr-Akt overexpression, 48 hours, FIG. 4E, read-out: IC50, growth inhibition, SRB assay): 1970 ± 10 µM | IC50 ([1]; PC-3, PC-3, SRB assay, FIG. 1A, read-out: IC50, inhibition of cell growth): ~3000 µM | anti-proliferative effect, clonogenic assay [2]: long-term anti-proliferative effect | phosphorylation of Akt ([3]; DU-145, 6 mM p-TSA): not modified | p21 and p27 expression ([3]; DU-145, 6 mM p-TSA, FIG. 3A): neither p21 nor p27 expression was modified | phosphorylation of mTOR, 4E-BP1 and p70S6K ([3]; DU-145, 6 mM p-TSA, FIGS. 3B and 3C): inhibitory effect | expressions of PUMA and Bak ([3]; DU-145, 24 h, Western blot): increase | protein expression of Mcl-1 ([3]; DU-145, 24 h, Western blot, FIG. 2D): significantly decreased | cyclin D1 protein expression ([3]; Rb-mutant DU-145, 6 mM p-TSA, FIG. 3A): decrease | phosphorylation of Akt ([4]; PC-3, 6 mM p-TSA): inhibited | Rb phosphorylation ([4]; PC-3, 6 mM p-TSA, FIG. 3A): decrease | cyclin D1 protein expression ([4]; PC-3, 6 mM p-TSA, FIG. 3A): decrease | p21 and p27 expression ([4]; PC-3, 6 mM p-TSA, FIG. 3A): neither p21 nor p27 expression was modified | phosphorylation of mTOR, 4E-BP1 and p70S6K ([4]; PC-3, 6 mM p-TSA, FIGS. 3B and 3C): inhibitory effect | expressions of PUMA and Bak ([4]; PC-3, 24 h, Western blot): increase
